Source: ChEMBL document CHEMBL1156847, “Structure-based design of a thiazolidinedione which targets the mitochondrial protein mitoNEET” (Bioorg Med Chem Lett, 2010)
pIC50: −log10 of the molar value.

Assays:
[1] = biological target: T1, CDGSH iron-sulfur domain-containing protein 1 (Rattus norvegicus, UniProt B0K020); assay: Displacement of [3H]rosiglitazone from rat liver mitochondrial mitoNEET by scintillation counting
T1 sequence (B0K020 whole entry): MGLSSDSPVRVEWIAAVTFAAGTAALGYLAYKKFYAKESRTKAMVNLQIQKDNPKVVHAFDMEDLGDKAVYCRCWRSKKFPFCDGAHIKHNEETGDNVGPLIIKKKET

SH-SY5Y [2] = assay: Neuroprotective activity against rotenone-induced cell death in human SH-SY5Y assessed as reduction in LDH release pretreated 1 hrs before rotenone challenge measured after 24 hrs relative to control; type: functional; design: scale not given: the % may be the effect or the level left
SH-SY5Y [3] = assay: Neuroprotective activity against rotenone-induced cell death in human SH-SY5Y assessed as reduction in LDH release pretreated 1 hrs before rotenone challenge measured after 24 hrs; type: functional, cell-based
Rattus norvegicus = organism: Rattus norvegicus; assay: Reduction in state 3 respiration in Sprague-Dawley rat mitochondria; type: functional; design: scale not given: the % may be the effect or the level left
[4] = Inhibition of respiration in Sprague-Dawley rat mitochondria assessed as reduction in respiratory control rate; type: functional

Row | pIC50 [1] | Compound | Activity (SH-SY5Y [2]) [%] | Activity (SH-SY5Y [3]) | Activity (Rattus norvegicus) [%] | pIC50 [4]
1 | 6.00 | CCc1ccc(CCOc2ccc(CC3SC(=O)NC3=O)cc2)nc1 (configuration not stated) [PIOGLITAZONE] |  |  |  | 
2 | 5.96 | CN(CCOc1ccc(CC2SC(=O)NC2=O)cc1)c1ccccn1 (configuration not stated) [ROSIGLITAZONE] |  |  |  | 

Row | Compound | pIC50 [1] | Activity (SH-SY5Y [2]) [%] | Activity (SH-SY5Y [3]) | Activity (Rattus norvegicus) [%] | pIC50 [4]
3 | CC(C)(C)c1cc(CC2SC(=O)N=C2O)cc(C(C)(C)C)c1O (configuration not stated) | 6.05 | 40 | Dose-dependent effect | 45 | 5.62
